ChEMBL document CHEMBL4665787, “Bifunctional and Unusual Amino Acid β- or γ-Ester Prodrugs of Nucleoside Analogues for Improved Affinity to ATB and Enhanced Metabolic Stability: An Application to Floxuridine” (J Med Chem, 2020)
Calls of active or inactive are those of the source. The calls are words filed in the database; no cut-off is given here.

What was measured:
[1] = system: ZR-75-1; assay: Antitumour activity against human ZR-75-1 cells xenografted in NOD SCID nude mouse assessed as tumour inhibition at 90 mg/kg, iv administered for 20 days measured every 2 day by caliper method relative to control; type: functional; conditions: ZR-75-1, iv, 480 h, time 20 day
[2] = Half life in rat plasma at 200 uM measured up to 120 mins by HPLC-MS/MS analysis; type: ADME, cell-free
[3] = system: MDA-MB-231; assay: Antitumour activity against human MDA-MB-231 cells xenografted in NOD SCID nude mouse assessed as tumour inhibition at 90 mg/kg, iv administered for 20 days measured every 2 day by caliper method relative to control; type: functional; conditions: MDA-MB-231, iv, 480 h, time 20 day
[4] = system: MIA PaCa-2; assay: Antitumour activity against human MIA-PaCa-2 cells xenografted in NOD SCID nude mouse assessed as tumour inhibition at 90 mg/kg, iv administered for 20 days measured every 2 day by caliper method relative to control; type: functional; conditions: MIA PaCa-2, iv, 480 h, time 20 day
[5] = target: T1, Sodium- and chloride-dependent neutral and basic amino acid transporter B(0+) (Homo sapiens, UniProt Q9UN76); assay: Substrate activity at SLC6A14 (unknown origin) expressed in Xenopus laevis oocytes assessed as ABT0+ mediated drug uptake at 0.5 mM incubated for 10 mins by HPLC analysis; type: ADME, cell-based; conditions: oocyte, 500 µM
T1 sequence (Q9UN76 whole entry): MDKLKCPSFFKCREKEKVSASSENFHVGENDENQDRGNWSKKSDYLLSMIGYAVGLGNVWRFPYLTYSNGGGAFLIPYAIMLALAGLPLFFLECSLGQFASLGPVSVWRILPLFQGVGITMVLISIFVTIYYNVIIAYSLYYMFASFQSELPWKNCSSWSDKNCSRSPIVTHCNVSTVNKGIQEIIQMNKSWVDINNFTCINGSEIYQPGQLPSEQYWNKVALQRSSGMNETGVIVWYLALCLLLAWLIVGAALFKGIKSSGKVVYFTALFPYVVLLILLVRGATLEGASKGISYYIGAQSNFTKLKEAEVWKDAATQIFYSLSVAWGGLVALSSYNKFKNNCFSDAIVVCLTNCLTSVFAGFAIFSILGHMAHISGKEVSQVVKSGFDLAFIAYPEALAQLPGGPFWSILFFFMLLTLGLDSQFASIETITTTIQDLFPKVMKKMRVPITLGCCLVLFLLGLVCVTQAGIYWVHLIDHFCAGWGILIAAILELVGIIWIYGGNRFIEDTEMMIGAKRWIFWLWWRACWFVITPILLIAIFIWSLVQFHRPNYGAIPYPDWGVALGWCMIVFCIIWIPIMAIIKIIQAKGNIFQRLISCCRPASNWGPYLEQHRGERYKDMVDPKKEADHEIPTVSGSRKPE

[6] = target: T2, Sodium- and chloride-dependent neutral and basic amino acid transporter B(0+) (Homo sapiens) (UniProt Q9UN76); assay: Substrate activity at SLC6A14 (unknown origin) expressed in Xenopus laevis oocytes assessed as increase in ABT0+ mediated drug uptake at 1 mM in presence of Na+ ion by HPLC analysis; type: cell-based; conditions: Oocyte
T2 sequence (whole entry): T1 sequence (Q9UN76 whole entry)

[7] = Half life of compound in human MDA-MB-231 cell homogenate; type: ADME, tissue-based
[8] = system: MDA-MB-231; assay: Potency index, ratio of FUdR GI50 to test compound GI50 for growth inhibition of human MDA-MB-231 cells; type: functional
[9] = Half life of compound in PBS buffer at pH 7.4 at 200 uM by HPLC analysis; type: physicochemical
[10] = target: T3, Solute carrier family 15 member 1 (Homo sapiens, UniProt P46059); assay: Substrate activity at PEPT1 (unknown origin) expressed in MDCK cells assessed as inhibition of gly-sar uptake incubated for 10 mins by HPLC/MS/MS analysis; type: cell-based
T3 sequence (P46059 whole entry): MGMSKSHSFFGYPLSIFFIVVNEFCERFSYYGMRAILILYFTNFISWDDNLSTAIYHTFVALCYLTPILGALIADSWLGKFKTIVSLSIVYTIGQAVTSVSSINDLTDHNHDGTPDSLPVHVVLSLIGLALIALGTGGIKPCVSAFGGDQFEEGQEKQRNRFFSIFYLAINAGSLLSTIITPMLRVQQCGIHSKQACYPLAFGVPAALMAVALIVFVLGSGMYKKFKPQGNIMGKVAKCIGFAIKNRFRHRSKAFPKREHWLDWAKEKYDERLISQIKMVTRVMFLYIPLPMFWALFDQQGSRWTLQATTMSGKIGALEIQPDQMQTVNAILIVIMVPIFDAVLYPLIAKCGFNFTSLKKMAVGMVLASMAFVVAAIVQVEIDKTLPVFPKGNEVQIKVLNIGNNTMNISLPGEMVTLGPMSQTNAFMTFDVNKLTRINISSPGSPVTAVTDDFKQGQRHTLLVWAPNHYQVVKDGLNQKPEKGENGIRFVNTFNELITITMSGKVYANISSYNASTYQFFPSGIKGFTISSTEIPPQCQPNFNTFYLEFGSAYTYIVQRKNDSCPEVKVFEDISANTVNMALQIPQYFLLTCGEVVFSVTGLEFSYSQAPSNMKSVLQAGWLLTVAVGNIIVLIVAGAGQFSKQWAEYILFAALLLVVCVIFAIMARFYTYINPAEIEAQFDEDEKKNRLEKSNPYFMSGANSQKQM

[11] = system: thymidine phosphorylase; assay: Half life of compound in thymidine phosphorylase buffer at 300 uM by HPLC analysis; type: physicochemical
[12] = target: T2, Sodium- and chloride-dependent neutral and basic amino acid transporter B(0+) (Homo sapiens); assay: Substrate activity at SLC6A14 (unknown origin) expressed in Xenopus laevis oocytes assessed as inhibition of drug uptake at 0.5 mM incubated for 10 mins in presence of glycine by HPLC analysis relative to control; type: cell-based; conditions: Oocyte
[13] = AUC (0 to t) in NOD SCID nude mouse plasma xenografted with ZR-75-1 cells assessed as floxuridine; 5-fluoro-2-deoxyuridine AUC at 90 mg/kg, iv measured up to 24 hrs by HPLC-MS/MS analysis; type: ADME, organism-based; parameters: route intravenous, dose 90 mg/kg, time <=24; conditions: in vivo
[14] = Toxicity in NOD SCID nude mouse xenografted with human MDA-MB-231 cells assessed as body weight at 90 mg/kg, iv for 20 days (reference value: 30.1 +/- 4.1g); type: organism-based; conditions: in vivo, 480 h, time 20 day
[15] = AUC (0 to t) in NOD SCID nude mouse plasma xenografted with ZR-75-1 cells at 90 mg/kg, iv measured up to 24 hrs by HPLC-MS/MS analysis; type: ADME, organism-based; parameters: route intravenous, dose 90 mg/kg, time <=24
[16] = Ratio of AUC (0 to t) in NOD SCID nude mouse plasma xenografted with ZR-75-1 cells to AUC (0 to t) in NOD SCID mouse tumour xenografted with ZR-75-1 cells; type: ADME, cell-free, Tumor/Plasma
[17] = target: T3, Solute carrier family 15 member 1; assay: Substrate activity at PEPT1 (unknown origin) expressed in MDCK cells assessed as PEPT1 mediated drug uptake at 0.5 mM incubated for 10 mins by HPLC analysis; type: ADME, cell-based; conditions: 500 µM
[18] = Drug uptake in MDCK cells incubated for 10 mins by HPLC analysis; type: ADME, cell-based, Canis lupus familiaris; conditions: dog, 500 µM, dose 0.5 mM
[19] = Half life of compound in human ZR-75-1 cell homogenate; type: ADME, tissue-based

half-life at 200 µM [2]: 2.49 h
Drug uptake [5]: 2.97 nmol/mg/min
Activity [6]: Active
half-life [7]: 0.185 h
half-life at 200 µM [9]: 4.77 h
IC50 [10]: 10.2 mM
half-life at 300 µM [11]: 4.98 h
inhibition [12]: 50%
AUC [13]: 1172.9 ng·h/mL
AUC(0-t) at 24 h [15]: 5070 ng·h/mL
Ratio [16]: 3.9
Drug uptake [17]: < 0.04 nmol/mg/min
Drug uptake [18]: < 0.04 nmol/mg/min
half-life [19]: 0.223 h
SMILES: N[C@@H](CC(=O)OC[C@H]1O[C@@H](n2cc(F)c(=O)[nH]c2=O)C[C@@H]1O)C(=O)O
inhibition in vivo at 90 mg/kg [1]: 58.6%
inhibition in vivo at 90 mg/kg [3]: 33.8%
inhibition in vivo at 90 mg/kg [4]: 62.4%
RatioGI50 [8]: 7
Activity [14]: 27.6 g
